Laboratory results: ChEMBL document CHEMBL1201862, “PubChem BioAssay data set” (2004)
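A five-concentration, 48-hour dose response in 96-well plates underlies each endpoint, interpolated linearly between surrounding concentrations. GI50 marks 50% less growth.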 Activity calls are given as the source filed them. Rule as the data show it: active = GI50 up to about 1.1 µM and inactive = higher.

Experiments:
Test in all cases: NCI-60 cell line screen, 48 h
A549 = system: A549
NCI-H522 = system: NCI-H522
OVCAR-5 = system: OVCAR-5
SK-MEL-28 = system: SK-MEL-28
UACC-257 = system: UACC-257
HL-60 = system: HL-60
SNB-75 = system: SNB-75
CAKI-1 = system: CAKI-1
SF-268 = system: SF-268
HOP-62 = system: HOP-62
TK-10 = system: TK-10
NCI-H23 = system: NCI-H23
HCT-116 = system: HCT-116
K562 = system: K562
OVCAR-3 = system: OVCAR-3
SK-OV-3 = system: SK-OV-3
COLO 205 = system: COLO 205
RXF 393 = system: RXF 393
SK-MEL-2 = system: SK-MEL-2
UO-31 = system: UO-31

Measured: GI50

Cc1nc2cccc(F)c2c(=O)n1C1CCCCNC1=O (stereo not given)
inactive: A549 > 10 µM | NCI-H522 > 10 µM | OVCAR-5 > 10 µM | SK-MEL-28 > 10 µM | UACC-257 > 10 µM | HL-60 > 10 µM | SNB-75 > 10 µM | CAKI-1 > 10 µM | SF-268 > 10 µM | HOP-62 > 10 µM | TK-10 > 10 µM | NCI-H23 > 10 µM | HCT-116 > 10 µM | K562 > 10 µM | OVCAR-3 > 10 µM | SK-OV-3 > 10 µM | COLO 205 > 10 µM | RXF 393 > 10 µM | SK-MEL-2 > 10 µM | UO-31 > 10 µM
